Assay results: patent US11208412B2 (DAEGU-GYEONGBUK MEDICAL INNOVATION FOUNDATION, priority 2017, dated 2021)
pIC50: −log10 of the molar value.

These compounds were tested against T1, recombinant LRRK2 kinase (Homo sapiens, UniProt Q5S007) (assay: LRRK2 kinase inhibition (Kinase-Glo luminescence)). Settings: IC50 grade; 25 μmol/L ATP, LRRKtide, 30° C. 2 hours; read-out: Enzyme activity LRRK2.
T1 construct: purchased Signal Chem, Richmond, BC, Canada
Format: biochemical
Procedure: Upon completion of the reaction, an equal amount of Kinase-Glo (Promega, Madison, Wis.) solution was added thereto, followed by reaction for 40 minutes. A detection solution was added thereto, followed by further reaction at room temperature for 30 minutes. Then, IC50 of kinase was calculated by measuring the amount of luciferase using a microplate ELISA reader (Bio-Tek).

T1 sequence (Q5S007 whole entry): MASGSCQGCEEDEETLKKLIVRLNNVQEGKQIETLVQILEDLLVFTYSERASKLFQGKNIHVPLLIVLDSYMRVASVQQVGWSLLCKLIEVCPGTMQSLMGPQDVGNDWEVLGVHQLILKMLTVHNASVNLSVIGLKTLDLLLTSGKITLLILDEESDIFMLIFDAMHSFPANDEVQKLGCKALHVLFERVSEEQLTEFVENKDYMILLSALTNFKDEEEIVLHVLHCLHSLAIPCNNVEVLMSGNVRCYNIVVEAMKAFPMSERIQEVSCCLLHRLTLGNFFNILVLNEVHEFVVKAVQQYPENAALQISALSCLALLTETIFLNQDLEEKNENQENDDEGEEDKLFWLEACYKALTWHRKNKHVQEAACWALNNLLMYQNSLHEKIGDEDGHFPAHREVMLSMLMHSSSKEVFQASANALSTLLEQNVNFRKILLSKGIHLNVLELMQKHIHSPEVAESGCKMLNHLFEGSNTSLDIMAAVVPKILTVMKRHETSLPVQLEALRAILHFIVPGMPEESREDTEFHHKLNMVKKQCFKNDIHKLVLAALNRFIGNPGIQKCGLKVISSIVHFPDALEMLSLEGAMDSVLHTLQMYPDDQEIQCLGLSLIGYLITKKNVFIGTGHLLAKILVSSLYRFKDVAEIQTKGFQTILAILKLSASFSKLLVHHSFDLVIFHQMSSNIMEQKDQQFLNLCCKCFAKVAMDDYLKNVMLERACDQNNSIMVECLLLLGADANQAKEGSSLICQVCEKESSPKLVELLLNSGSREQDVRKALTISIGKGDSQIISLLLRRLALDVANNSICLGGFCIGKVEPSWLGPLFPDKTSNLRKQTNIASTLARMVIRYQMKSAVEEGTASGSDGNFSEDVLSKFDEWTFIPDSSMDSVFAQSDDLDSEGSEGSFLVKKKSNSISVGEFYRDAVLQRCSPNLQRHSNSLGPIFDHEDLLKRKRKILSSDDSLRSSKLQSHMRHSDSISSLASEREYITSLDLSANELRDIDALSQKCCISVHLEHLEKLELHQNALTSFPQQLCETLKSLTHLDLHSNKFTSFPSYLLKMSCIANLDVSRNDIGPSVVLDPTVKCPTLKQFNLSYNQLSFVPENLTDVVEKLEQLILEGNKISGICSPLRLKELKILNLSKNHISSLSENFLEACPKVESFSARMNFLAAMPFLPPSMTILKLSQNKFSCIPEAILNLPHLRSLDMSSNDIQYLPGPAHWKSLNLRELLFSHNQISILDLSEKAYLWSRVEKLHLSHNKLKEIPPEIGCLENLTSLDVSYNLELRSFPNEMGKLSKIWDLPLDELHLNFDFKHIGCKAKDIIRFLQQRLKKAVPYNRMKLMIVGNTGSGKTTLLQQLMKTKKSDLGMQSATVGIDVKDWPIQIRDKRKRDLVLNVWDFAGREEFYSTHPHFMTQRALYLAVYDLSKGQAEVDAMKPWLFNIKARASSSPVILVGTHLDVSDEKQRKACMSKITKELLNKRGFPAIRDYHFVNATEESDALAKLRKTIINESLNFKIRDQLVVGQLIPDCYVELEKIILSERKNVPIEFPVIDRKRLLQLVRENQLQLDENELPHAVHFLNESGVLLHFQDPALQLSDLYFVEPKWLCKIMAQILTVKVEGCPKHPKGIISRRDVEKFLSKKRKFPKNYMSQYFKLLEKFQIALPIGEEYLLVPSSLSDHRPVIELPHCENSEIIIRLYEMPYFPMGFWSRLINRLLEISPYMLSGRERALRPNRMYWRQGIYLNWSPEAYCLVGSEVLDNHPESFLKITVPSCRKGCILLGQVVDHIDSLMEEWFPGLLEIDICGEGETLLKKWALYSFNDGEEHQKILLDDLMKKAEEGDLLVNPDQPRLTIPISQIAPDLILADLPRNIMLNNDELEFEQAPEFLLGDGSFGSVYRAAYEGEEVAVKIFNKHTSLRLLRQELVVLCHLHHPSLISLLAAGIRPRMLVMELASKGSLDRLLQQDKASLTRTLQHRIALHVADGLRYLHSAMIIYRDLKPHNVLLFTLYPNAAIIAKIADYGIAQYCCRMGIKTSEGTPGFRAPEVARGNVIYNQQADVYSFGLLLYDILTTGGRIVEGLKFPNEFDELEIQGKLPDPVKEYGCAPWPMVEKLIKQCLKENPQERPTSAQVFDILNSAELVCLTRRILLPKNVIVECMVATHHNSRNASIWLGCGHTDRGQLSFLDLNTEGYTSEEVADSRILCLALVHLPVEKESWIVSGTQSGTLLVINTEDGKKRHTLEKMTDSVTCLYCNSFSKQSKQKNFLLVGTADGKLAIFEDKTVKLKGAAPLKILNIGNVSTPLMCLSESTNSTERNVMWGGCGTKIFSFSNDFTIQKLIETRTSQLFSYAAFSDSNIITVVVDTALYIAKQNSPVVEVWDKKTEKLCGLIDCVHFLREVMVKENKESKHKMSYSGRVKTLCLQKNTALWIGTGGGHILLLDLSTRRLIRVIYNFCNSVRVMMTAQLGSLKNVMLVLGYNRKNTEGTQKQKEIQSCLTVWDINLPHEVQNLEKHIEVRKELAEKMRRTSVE

Row | pIC50 | Structure (SMILES)
1 | 7.00 to 8.00 | CCNc1nc(Nc2ccc(C(=O)N3CCOC(C)C3)cc2OC)nc2[nH]cc(C(F)(F)F)c12 (stereo in doubt) [Example 111, (S)-(4-((4-(ethylamino)-5-(trifluoromethyl)-7H-pyrrolo[2,3-d]pyrimidine-2-yl)amino)-3-methoxyphenyl)(2-methylmorpholino)methanone]
2 | > 8.00 | CCNc1nc(Nc2cc(OC)c(OC)c(OC)c2)nc2[nH]cc(C#N)c12 [Example 3, 4-(ethylamino)-2-((3,4,5-trimethoxyphenyl)amino)-7H-pyrrolo[2,3-d]pyrimidine-5-carbonitrile]
3 | > 8.00 | CCNc1nc(Nc2cnn(C)c2)nc2[nH]cc(C#N)c12 [Example 4, 4-(ethylamino)-2-((1-methyl-1H-pyrazole-4-yl)amino)-7H-pyrrolo[2,3-d]pyrimidine-5-carbonitrile]
4 | > 8.00 | CCNc1nc(Nc2ccn(C)n2)nc2[nH]cc(C#N)c12 [Example 5, 4-(ethylamino)-2-((1-methyl-1H-pyrazole-3-yl)amino)-7H-pyrrolo[2,3-d]pyrimidine-5-carbonitrile]
5 | > 8.00 | CCNc1nc(Nc2cc(F)c(C(=O)N3CCOCC3)cc2OC)nc2[nH]cc(C#N)c12 [Example 6, 4-(ethylamino)-2-((5-fluoro-2-methoxy-4-(morpholine-4-carbonyl)phenyl)amino)-7H-pyrrolo[2,3-d]pyrimidine-5-carbonitrile]
6 | > 8.00 | CCNc1nc(Nc2cc(F)c(C(=O)N3CCC(N4CCOCC4)CC3)cc2OC)nc2[nH]cc(C#N)c12 [Example 7, 4-(ethylamino)-2-((5-fluoro-2-methoxy-4-(4-morpholinopiperidine-1-carbonyl)phenyl)amino)-7H-pyrrolo[2,3-d]pyrimidine-5-carbonitrile]
7 | > 8.00 | CCNc1nc(Nc2ccc(C(=O)N3CCC(N4CCOCC4)CC3)cc2OC)nc2[nH]cc(C#N)c12 [Example 8, 4-(ethylamino)-2-((2-methoxy-4-(4-morpholinopiperidine-1-carbonyl)phenyl)amino)-7H-pyrrolo[2,3-d]pyrimidine-5-carbonitrile]
8 | > 8.00 | CNc1nc(Nc2ccc(C(=O)N3CCC(N4CCOCC4)CC3)cc2OC)nc2[nH]cc(C#N)c12 [Example 9, 2-((2-methoxy-4-(4-morpholinylpiperidine-1-carbonyl)phenyl)amino)-4-(methylamino)-7H-pyrrolo[2,3-d]pyrimidine-5-carbonitrile]
9 | > 8.00 | CNc1nc(Nc2cc(F)c(C(=O)N3CCOCC3)cc2OC)nc2[nH]cc(C#N)c12 [Example 10, 2-((5-fluoro-2-methoxy-4-(morpholine-4-carbonyl)phenyl)amino)-4-(methylamino)-7H-pyrrolo[2,3-d]pyrimidine-5-carbonitrile]
10 | > 8.00 | CNc1nc(Nc2cc(F)c(C(=O)N3CCC(N4CCOCC4)CC3)cc2OC)nc2[nH]cc(C#N)c12 [Example 11, 2-((5-fluoro-2-methoxy-4-(4-morpholinopiperidine-1-carbonyl)phenyl)amino)-4-(methylamino)-7H-pyrrolo[2,3-d]pyrimidine-5-carbonitrile]
11 | > 8.00 | CCCNc1nc(Nc2ccc(C(=O)N3CCOCC3)cc2OC)nc2[nH]cc(C#N)c12 [Example 12, 2-((2-methoxy-4-(morpholine-4-carbonyl)phenyl)amino)-4-(propylamino)-7H-pyrrolo[2,3-d]pyrimidine-5-carbonitrile]
12 | > 8.00 | CCCNc1nc(Nc2ccc(C(=O)N3CCC(N4CCOCC4)CC3)cc2OC)nc2[nH]cc(C#N)c12 [Example 13, 2-((2-methoxy-4-(4-morpholinopiperidine-1-carbonyl)phenyl)amino)-4-(propylamino)-7H-pyrrolo[2,3-d]pyrimidine-5-carbonitrile]
13 | 7.00 to 8.00 | CCCNc1nc(Nc2cc(F)c(C(=O)N3CCOCC3)cc2OC)nc2[nH]cc(C#N)c12 [Example 14, 2-((5-fluoro-2-methoxy-4-(morpholine-4-carbonyl)phenyl)amino)-4-(propylamino)-7H-pyrrolo[2,3-d]pyrimidine-5-carbonitrile]
14 | > 8.00 | CCCNc1nc(Nc2cc(F)c(C(=O)N3CCC(N4CCOCC4)CC3)cc2OC)nc2[nH]cc(C#N)c12 [Example 15, 2-((5-fluoro-2-methoxy-4-(4-morpholinopiperidine-1-carbonyl)phenyl)amino)-4-(propylamino)-7H-pyrrolo[2,3-d]pyrimidine-5-carbonitrile]
15 | > 8.00 | COc1cc(C(=O)N2CCOCC2)ccc1Nc1nc(NC2CC2)c2c(C#N)c[nH]c2n1 [Example 16, 4-(cyclopropylamino)-2-((2-methoxy-4-(morpholine-4-carbonyl)phenyl)amino)-7H-pyrrolo[2,3-d]pyrimidine-5-carbonitrile]
16 | 7.00 to 8.00 | COc1cc(C(=O)N2CCOCC2)c(F)cc1Nc1nc(NC2CC2)c2c(C#N)c[nH]c2n1 [Example 18, 4-(cyclopropylamino)-2-((5-fluoro-2-methoxy-4-(morpholine-4-carbonyl)phenyl)amino)-7H-pyrrolo[2,3-d]pyrimidine-5-carbonitrile]

Row | pIC50 | Structure (SMILES)
17 | 7.00 to 8.00 | COc1cc(C(=O)N2CCC(N3CCOCC3)CC2)c(F)cc1Nc1nc(NC2CC2)c2c(C#N)c[nH]c2n1 [Example 19, 4-(cyclopropylamino)-2-((5-fluoro-2-methoxy-4-(4-morpholinopiperidine-1-carbonyl)phenyl)amino)-7H-pyrrolo[2,3-d]pyrimidine-5-carbonitrile]
18 | > 8.00 | CNc1nc(Nc2ccc(C(=O)N3CCO[C@H](C)C3)cc2OC)nc2[nH]cc(C#N)c12 [Example 20, (R)-2-((2-methoxy-4-(2-methylmorpholine-4-carbonyl)phenyl)amino)-4-(methylamino)-7H-pyrrolo[2,3-d]pyrimidine-5-carbonitrile]
19 | > 8.00 | CNc1nc(Nc2ccc(C(=O)N3CCO[C@@H](C)C3)cc2OC)nc2[nH]cc(C#N)c12 [Example 21, (S)-2-((2-methoxy-4-(2-methylmorpholine-4-carbonyl)phenyl)amino)-4-(methylamino)-7H-pyrrolo[2,3-d]pyrimidine-5-carbonitrile]
20 | 7.00 to 8.00 | CNc1nc(Nc2ccc(C(=O)N3C[C@@H](C)O[C@@H](C)C3)cc2OC)nc2[nH]cc(C#N)c12 [Example 22, 2-((4-((2R,6S)-2,6-dimethylmorpholine-4-carbonyl)-2-methoxyphenyl)amino)-4-(methylamino)-7H-pyrrolo[2,3-d]pyrimidine-5-carbonitrile]
21 | > 8.00 | CNc1nc(Nc2ccc(C(=O)N3CCC(F)(F)CC3)cc2OC)nc2[nH]cc(C#N)c12 [Example 23]
22 | > 8.00 | CCNc1nc(Nc2ccc(C(=O)N3C[C@@H](C)O[C@@H](C)C3)cc2OC)nc2[nH]cc(C#N)c12 [Example 24, 2-((4-((2R,6S)-2,6-dimethylmorpholine-4-carbonyl)-2-methoxyphenyl)amino)-4-(ethylamino)-7H-pyrrolo[2,3-d]pyrimidine-5-carbonitrile]
23 | > 8.00 | CCNc1nc(Nc2ccc(C(=O)N3CCO[C@H](C)C3)cc2OC)nc2[nH]cc(C#N)c12 [Example 25, (R)-4-(ethylamino)-2-((2-methoxy-4-(2-methylmorpholine-4-carbonyl)phenyl)amino)-7H-pyrrolo[2,3-d]pyrimidine-5-carbonitrile]
24 | > 8.00 | CCNc1nc(Nc2ccc(C(=O)N3CCO[C@@H](C)C3)cc2OC)nc2[nH]cc(C#N)c12 [Example 26, (S)-4-(ethylamino)-2-((2-methoxy-4-(2-methylmorpholine-4-carbonyl)phenyl)amino)-7H-pyrrolo[2,3-d]pyrimidine-5-carbonitrile]
25 | > 8.00 | CCNc1nc(Nc2ccc(C(=O)N3CCC(F)(F)CC3)cc2OC)nc2[nH]cc(C#N)c12 [Example 27, 2-((4-(4,4-difluoropiperidine-1-carbonyl)-2-methoxyphenyl)amino)-4-(ethylamino)-7H-pyrrolo[2,3-d]pyrimidine-5-carbonitrile]
26 | 7.00 to 8.00 | CNc1nc(Nc2cn(C)nc2C)nc2[nH]cc(C#N)c12 [Example 28, 6-((1,3-dimethyl-1H-pyrazole-4-yl)amino)-4-(methylamino)-1H-pyrrolo[2,3-b]pyrimidine-3-carbonitrile]
27 | 7.00 to 8.00 | CNc1nc(Nc2cnn(C)c2C)nc2[nH]cc(C#N)c12 [Example 29, 6-((1,5-dimethyl-1H-pyrazole-4-yl)amino)-4-(methylamino)-1H-pyrrolo[2,3-b]pyrimidine-3-carbonitrile]
28 | 7.00 to 8.00 | CNc1nc(Nc2cn(C(C)C)nc2C)nc2[nH]cc(C#N)c12 [Example 30, 6-((1-isopropyl-3-methyl-1H-pyrazole-4-yl)amino)-4-(methylamino)-1H-pyrrolo[2,3-b]pyrimidine-3-carbonitrile]
29 | > 8.00 | CNc1nc(Nc2cnn(C(C)C)c2C)nc2[nH]cc(C#N)c12 [Example 31, 6-((1-isopropyl-5-methyl-1H-pyrazole-4-yl)amino)-4-(methylamino)-1H-pyrrolo[2,3-b]pyrimidine-3-carbonitrile]
30 | > 8.00 | COc1cc(C(=O)N2CCOCC2)ccc1Nc1nc(NC2(C)CC2)c2c(C#N)c[nH]c2n1 [Example 36, 2-((2-methoxy-4-(morpholine-4-carbonyl)phenyl)amino)-4-((1-methylcyclopropyl)amino)-7H-pyrrolo[2,3-d]pyrimidine-5-carbonitrile]
31 | > 8.00 | COc1cc(C(=O)N2CCOCC2)c(F)cc1Nc1nc(NC2(C)CC2)c2c(C#N)c[nH]c2n1 [Example 37, 2-((5-fluoro-2-methoxy-4-(morpholine-4-carbonyl)phenyl)amino)-4-((1-methylcyclopropyl)amino)-7H-pyrrolo[2,3-d]pyrimidine-5-carbonitrile]
32 | > 8.00 | Cc1c(Nc2nc(NC3(C)CC3)c3c(C#N)c[nH]c3n2)cnn1C(C)C [Example 38, 2-((1-isopropyl-5-methyl-1H-pyrazole-4-yl)amino)-4-((1-methylcyclopropyl)amino)-7H-pyrrolo[2,3-d]pyrimidine-5-carbonitrile]
